A short description of data set [1]: Metabolic stability in human liver microsomes, unbound intrinsic clearance (Cl int/fu mic). The format is in vitro ADME. Conditions: 0.5 μM compound, NADPH; for CLint scaled at 0.5 μM: human, liver microsomes, pH 7.4, human liver microsomes 0.25 mg/mL, read-out: Cl int, mic unb. (h) [l/h/kg] (unbound intrinsic clearance, human); for Cl int, mic unb. (h) [l/h/kg] (unbound intrinsic clearance, human): human liver microsomes 0.25 mg/mL. Summed up:
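Unbound intrinsic clearance is CLint divided by fu mic, with the unbound fraction measured by 4 h HTDialysis at 37 °C of 0.25 mg/ml microsomes spiked with 0.5 µM compound. For CLint, 0.5 µM compound was incubated with 0.25 mg/mL human microsomes and 1.0 mM NADPH (pH 7.4, 37 °C). Substrate loss over 30 min was measured by LC-MS/MS and t1/2 assumed first-order kinetics.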
In general terms: Liver microsomes are vesicles of endoplasmic reticulum, rich in cytochrome P450 enzymes.

A further data set addresses T1, 5-HT2C receptor (Homo sapiens, UniProt P28335).
T1 construct: host or cells: U2OS
The data set is described as follows: Human 5-HT2C functional assay (beta-arrestin2 recruitment, U2OS_HTR2C_β-Arrestin cells). Conditions: for EC50: beta-arrestin2 recruitment, U2OS_HTR2C_β-Arrestin cells, 1.5 h incubation, read-out: EC50 5-HT2C (potency in functional assay); for Emax / % efficacy: relative efficacy vs response to 10 μM 5-HT or maximal 5-HT effect (100%). In kind it is cell-based. In a few lines:
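EC50 and relative efficacy came from 4-parameter variable-slope fits, normalised to 10 µM 5-HT or maximal 5-HT response (100%). Luminescent β-galactosidase enzyme-complementation signal was read after 1.5 h compound exposure in U2OS_HTR2C_β-Arrestin cells held in 1% serum medium from the prior day.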
For orientation: Recruitment of arrestin is a read-out of receptor activation apart from second messengers.

Experimental findings from patent publication US20190062305A1, “PYRIDYL OR PYRAZINYL COMPOUNDS CARRYING A METHYL-BOUND ALPHA-AMINO ACID AMIDE GROUP” (ABBVIE DEUTSCHLAND GMBH & CO. KG, priority 2015, published 2019) are described below.

SMILES strings stand for the structures. Counter-ions that a name gives are not always drawn.

T1 sequence (P28335 33-458): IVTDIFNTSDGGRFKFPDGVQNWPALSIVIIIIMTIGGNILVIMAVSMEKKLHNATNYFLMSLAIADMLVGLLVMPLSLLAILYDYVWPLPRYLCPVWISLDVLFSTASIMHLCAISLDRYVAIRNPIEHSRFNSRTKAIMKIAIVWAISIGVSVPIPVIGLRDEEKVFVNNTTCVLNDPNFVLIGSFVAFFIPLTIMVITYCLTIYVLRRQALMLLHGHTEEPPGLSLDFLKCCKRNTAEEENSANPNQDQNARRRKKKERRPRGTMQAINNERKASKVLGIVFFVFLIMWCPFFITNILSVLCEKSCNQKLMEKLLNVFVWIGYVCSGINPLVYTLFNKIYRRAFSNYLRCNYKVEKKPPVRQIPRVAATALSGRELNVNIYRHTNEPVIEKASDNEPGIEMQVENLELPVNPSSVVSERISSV
T1 sequence (P32121 whole entry partner): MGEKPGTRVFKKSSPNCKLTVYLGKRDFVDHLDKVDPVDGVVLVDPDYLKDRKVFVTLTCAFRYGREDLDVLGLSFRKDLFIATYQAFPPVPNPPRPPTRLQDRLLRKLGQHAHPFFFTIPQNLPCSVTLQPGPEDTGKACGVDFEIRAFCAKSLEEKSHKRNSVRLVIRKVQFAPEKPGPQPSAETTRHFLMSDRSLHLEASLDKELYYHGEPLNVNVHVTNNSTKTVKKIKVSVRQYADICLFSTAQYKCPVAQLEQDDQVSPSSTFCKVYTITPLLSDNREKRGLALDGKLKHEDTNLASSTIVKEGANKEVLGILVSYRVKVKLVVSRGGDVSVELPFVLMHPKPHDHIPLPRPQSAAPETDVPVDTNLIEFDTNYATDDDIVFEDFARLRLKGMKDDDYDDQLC

Take `COc1nc(N2CCC(C(F)(F)F)CC2)c(F)cc1CNC(=O)[C@@H]1CCCN1` [Example 133, (2S)—N-[[5-Fluoro-2-methoxy-6-[4-(trifluoromethyl)-1-piperidyl]-3-pyridyl]methyl]pyrrolidine-2-carboxamide; 2,2,2-trifluoroacetic Acid]: the CLint scaled at 0.5 μM in data set [1] was 5 to 50 L/h/kg. Besides, on 5-HT2C receptor, the EC50 is below 20 nM and the maximal response (Emax) is above 70%.
With `COc1nc(N2CCC(F)(F)CC2)c(F)cc1CNC(=O)[C@@H]1CCCN1` [Example 134, (2S)—N-[[6-(4,4-Difluoro-1-piperidyl)-5-fluoro-2-methoxy-3-pyridyl]methyl]-pyrrolidine-2-carboxamide; 2,2,2-trifluoroacetic Acid], in data set [1], the CLint scaled at 0.5 μM was below 5 L/h/kg. Moreover, at 5-HT2C receptor, the EC50 is below 20 nM and the Emax was above 70%.
As for `COc1nc(NCC2CC(F)(F)C2)c(F)cc1CNC(=O)[C@@H]1CCCN1` [Example 136, (2S)—N-[[6-[(3,3-Difluorocyclobutyl)methylamino]-5-fluoro-2-methoxy-3-pyridyl]methyl]pyrrolidine-2-carboxamide; 2,2,2-trifluoroacetic Acid], the CLint scaled at 0.5 μM in data set [1] is below 5 L/h/kg. Besides, at 5-HT2C receptor, the EC50 was below 20 nM and the Emax is above 70%.
The corresponding values for `COc1nc(N(C)CCc2ccccc2)c(F)cc1CNC(=O)[C@@H]1CCCN1` [Example 137, (2S)—N-[[5-Fluoro-2-methoxy-6-[methyl(phenethyl)amino]-3-pyridyl]methyl]-pyrrolidine-2-carboxamide Hydrochloride] are 50 to 500 L/h/kg, 200 to 1000 nM and above 70%.
`COc1nc(N2CCc3ccccc32)c(F)cc1CNC(=O)[C@@H]1CCCN1` [Example 138, (2S)—N-[(5-Fluoro-6-indolin-1-yl-2-methoxy-3-pyridyl)methyl]pyrrolidine-2-carboxamide Hydrochloride]: in data set [1], the CLint scaled at 0.5 μM was 5 to 50 L/h/kg. On 5-HT2C receptor, the EC50 is 200 to 1000 nM and the Emax is above 70%.
The corresponding values for `COc1nc(C2CC2C(F)(F)F)c(F)cc1CNC(=O)[C@@H]1CCCN1` (stereo partly drawn) [Example 139, (2S)—N-[[5-fluoro-2-methoxy-6-[2-(trifluoromethyl)cyclopropyl]-3-pyridyl]methyl]pyrrolidine-2-carboxamide; 2,2,2-trifluoroacetic Acid] are 5 to 50 L/h/kg, 200 to 1000 nM and 30 to 50%.
The corresponding values for `COc1nc(C2=CCC(C(F)(F)F)CC2)c(F)cc1CNC(=O)[C@@H]1CCCN1` (stereo partly drawn) [Example 140, (2S)—N-[[5-Fluoro-2-methoxy-6-[4-(trifluoromethyl)cyclohexen-1-yl]-3-pyridyl]methyl]pyrrolidine-2-carboxamide] are 5 to 50 L/h/kg, below 20 nM and above 70%.
In the case of `COc1nc(N[C@H]2CC[C@@H](C(F)(F)F)CC2)c(F)cc1CNC(=O)[C@@H]1CCCN1` [Example 141, (2S)—N-[[5-Fluoro-2-methoxy-6-[[cis-4-(trifluoromethyl)cyclohexyl]amino]-3-pyridyl]methyl]pyrrolidine-2-carboxamide], in data set [1], the “Cl int, mic unb. (h) [l/h/kg] (unbound intrinsic clearance, human)” value (from here on “Cl int … (unbound intrinsic clearance, human)”) is reported as “+ (from 50 to 500 l/h/kg)”. Moreover, at 5-HT2C receptor, the EC50 was below 20 nM and the Emax was above 70%.
As for `COc1nc(N[C@H]2CC[C@@H](C(F)(F)F)CC2)c(F)cc1CNC(=O)[C@@H]1CCCN1.Cl` [Example 142, (2S)—N-[[5-Fluoro-2-methoxy-6-[[cis-4-(trifluoromethyl)cyclohexyl]amino]-3-pyridyl]methyl]pyrrolidine-2-carboxamide Hydrochloride], in data set [1], the “Cl int … (unbound intrinsic clearance, human)” value was “++ (from 5 to <50 l/h/kg)”. Besides, on 5-HT2C receptor, the EC50 was below 20 nM and the “% efficacy” value was “+++ (>70%)”.
Consider `COc1nc(N[C@H]2CC[C@H](C(F)(F)F)CC2)c(F)cc1CNC(=O)[C@@H]1CCCN1` [Example 143, (2S)—N-[[5-Fluoro-2-methoxy-6-[[trans-4-(trifluoromethyl)cyclohexyl]amino]-3-pyridyl]methyl]pyrrolidine-2-carboxamide], for which the “Cl int … (unbound intrinsic clearance, human)” value in data set [1] was “+ (from 50 to 500 l/h/kg)”. Also, on 5-HT2C receptor, the EC50 is below 20 nM and the Emax was above 70%.
In the case of `COc1nc(N[C@H]2CC[C@H](C(F)(F)F)CC2)c(F)cc1CNC(=O)[C@@H]1CCCN1.Cl` [Example 144, (2S)—N-[[5-Fluoro-2-methoxy-6-[[trans-4-(trifluoromethyl)cyclohexyl]amino]-3-pyridyl]methyl]pyrrolidine-2-carboxamide Hydrochloride], the “Cl int … (unbound intrinsic clearance, human)” value in data set [1] is on record as “++ (from 5 to <50 l/h/kg)”. In addition, on 5-HT2C receptor, the EC50 is 20 to 200 nM and the “% efficacy” value is listed as “+++ (>70%)”.
As to `COc1nc(Cc2ccccc2)c(F)cc1CNC(=O)[C@@H]1CCCN1` [Example 145, (2S)—N-[(6-Benzyl-5-fluoro-2-methoxy-3-pyridyl)methyl]pyrrolidine-2-carboxamide], the CLint scaled at 0.5 μM in data set [1] was below 5 L/h/kg. Also, at 5-HT2C receptor, the EC50 was below 20 nM and the Emax is above 70%.
The corresponding values for `COc1nc(NC2CCC2)c(F)cc1CNC(=O)[C@@H]1CCCN1` [Example 146, (2S)—N-[[6-(Cyclobutylamino)-5-fluoro-2-methoxy-3-pyridyl]methyl]pyrrolidine-2-carboxamide; 2,2,2-trifluoroacetic Acid] are below 5 L/h/kg, 20 to 200 nM and above 70%.
As to `COc1nc(N(C)C2CC2)c(F)cc1CNC(=O)[C@@H]1CCCN1` [Example 147, (2S)—N-[[6-[N-Cyclopropyl-N-methyl-amino]-5-fluoro-2-methoxy-3-pyridyl]methyl]pyrrolidine-2-carboxamide; 2,2,2-trifluoroacetic Acid], in data set [1], the CLint scaled at 0.5 μM is 5 to 50 L/h/kg. For the same compound, at 5-HT2C receptor, the EC50 was in the range of 200 to 1000 nM and the Emax lay in the range of 50 to 70%.
On to `C=CCN(Cc1ccccc1)c1nc(OC)c(CNC(=O)[C@@H]2CCCN2)cc1F` [Example 150, (2S)—N-[[6-[N-Allyl-N-benzyl-amino]-5-fluoro-2-methoxy-3-pyridyl]methyl]-pyrrolidine-2-carboxamide Hydrochloride], for which the CLint scaled at 0.5 μM in data set [1] was 5 to 50 L/h/kg. Moreover, at 5-HT2C receptor, the EC50 lay in the range of 20 to 200 nM and the Emax was above 70%.
On to `COc1nc(N2CC(Oc3ccc(Cl)cc3)C2)c(F)cc1CNC(=O)[C@@H]1CCCN1` [Example 151, (2S)—N-[[6-[3-(4-Chlorophenoxy)azetidin-1-yl]-5-fluoro-2-methoxy-3-pyridyl]methyl]pyrrolidine-2-carboxamide; 2,2,2-trifluoroacetic Acid], for which the CLint scaled at 0.5 μM in data set [1] lay within 50 to 500 L/h/kg. For the same compound, on 5-HT2C receptor, the EC50 fell in the range of 200 to 1000 nM and the Emax is above 70%.
In the case of `COc1nc(NCC2(C(F)(F)F)CC2)c(F)cc1CNC(=O)[C@@H]1CCCN1` [Example 152, (2S)—N-[[5-Fluoro-2-methoxy-6-[[1-(trifluoromethyl)cyclopropyl]methylamino]-3-pyridyl]methyl]pyrrolidine-2-carboxamide; 2,2,2-trifluoroacetic Acid], in data set [1], the CLint scaled at 0.5 μM was below 5 L/h/kg. Moreover, on 5-HT2C receptor, the EC50 was below 20 nM and the Emax was above 70%.
For `COc1nc(N2CCCC(C(F)(F)F)C2)c(F)cc1CNC(=O)[C@@H]1CCCN1` (stereo partly drawn) [Example 153, (2S)—N-[[5-Fluoro-2-methoxy-6-[3-(trifluoromethyl)-1-piperidyl]-3-pyridyl]methyl]pyrrolidine-2-carboxamide; 2,2,2-trifluoroacetic Acid], the CLint scaled at 0.5 μM in data set [1] lay in the range of 5 to 50 L/h/kg. Moreover, at 5-HT2C receptor, the EC50 lay in the range of 20 to 200 nM and the Emax was above 70%.
The corresponding values for `COc1nc(N(C)C2CCC(F)(F)CC2)c(F)cc1CNC(=O)[C@@H]1CCCN1` [Example 154, (2S)—N-[[6-[N-(4,4-Difluorocyclohexyl)-N-methyl-amino]-5-fluoro-2-methoxy-3-pyridyl]methyl]pyrrolidine-2-carboxamide; 2,2,2-trifluoroacetic Acid] are 5 to 50 L/h/kg, 20 to 200 nM and above 70%.
As for `COc1nc(N2CCCCCC2)c(F)cc1CNC(=O)[C@@H]1CCCN1` [Example 155, (2S)—N-[[6-(Azepan-1-yl)-5-fluoro-2-methoxy-3-pyridyl]methyl]pyrrolidine-2-carboxamide; 2,2,2-trifluoroacetic Acid], in data set [1], the CLint scaled at 0.5 μM lay in the range of 5 to 50 L/h/kg. Further, at 5-HT2C receptor, the EC50 lay within 20 to 200 nM and the Emax is above 70%.
Consider `COc1nc(N2CCCC(F)(F)C2)c(F)cc1CNC(=O)[C@@H]1CCCN1` [Example 156, (2S)—N-[[6-(3,3-Difluoro-1-piperidyl)-5-fluoro-2-methoxy-3-pyridyl]methyl]-pyrrolidine-2-carboxamide; 2,2,2-trifluoroacetic Acid], for which the CLint scaled at 0.5 μM in data set [1] is below 5 L/h/kg. For the same compound, on 5-HT2C receptor, the EC50 is 20 to 200 nM and the Emax was 50 to 70%.
With `COc1nc(C2CCCOC2)c(F)cc1CNC(=O)[C@@H]1CCCN1` (stereo partly drawn) [Example 158, (2S)—N-[(5-Fluoro-2-methoxy-6-tetrahydropyran-3-yl-3-pyridyl)methyl]-pyrrolidine-2-carboxamide Hydrochloride], the CLint scaled at 0.5 μM in data set [1] is below 5 L/h/kg. In addition, at 5-HT2C receptor, the EC50 fell in the range of 20 to 200 nM and the Emax is above 70%.

As a reminder, the EC50 is the concentration that produces a half-maximal response. The Emax is the maximal effect, on the per cent scale that the assay sets.
